Source: ChEMBL document CHEMBL5370597, “Fungal Duel between Penicillium brasilianum and Aspergillus nomius Results in Dual Induction of Miktospiromide A and Kitrinomycin A” (J Nat Prod, 2023)
Converted amounts (≈) assume the structure as drawn. The source made the active and inactive calls. The rule behind the calls is not given here.

Experiments:
Penicillium brasilianum [1] = experiment: Antifungal activity against Penicillium brasilianum MST-FP1927 assessed as fungal growth rate at 20 ug by disc diffusion assay; assay type: functional, organism-based; conditions: dose 20.0 µg
Penicillium brasilianum [2] = experiment: Antifungal activity against Penicillium brasilianum MST-FP1927 assessed as change in morphology at 20 ug by disc diffusion assay; assay type: functional, organism-based; conditions: dose 20.0 µg
[3] = Cytotoxicity against mouse NS-1 cells incubated for 72 hrs by resazurin staining based microplate reader assay; assay type: functional
Staphylococcus aureus = experiment: Antibacterial activity against Staphylococcus aureus ATCC 25923 assessed as bacterial growth inhibition incubated for 48 hrs by resazurin staining based microplate reader assay; assay type: functional
Bacillus subtilis = experiment: Antibacterial activity against Bacillus subtilis ATCC 6633 assessed as bacterial growth inhibition incubated for 48 hrs by resazurin staining based microplate reader assay; assay type: functional
DU-145 = experiment: Cytotoxicity against human DU-145 cells incubated for 72 hrs by resazurin staining based microplate reader assay; assay type: functional
Giardia intestinalis = experiment: Anti-protozoal activity against Giardia duodenalis 713 assessed as inhibition of protozoal growth measured after 72 hrs under anaerobic conditions; assay type: functional
Tritrichomonas foetus = experiment: Antiprotozoal activity against Tritrichomonas foetus KV-1 strain assessed as inhibition of protozoal growth measured after 72 hrs under anaerobic conditions; assay type: functional
NFF = experiment: Cytotoxicity against human NFF cells incubated for 72 hrs by resazurin staining based microplate reader assay; assay type: toxicity, cell-based
Candida albicans = experiment: Antifungal activity against Candida albicans ATCC 10231 assessed as fungal growth inhibition incubated for 48 hrs by bromocresol green staining based microplate reader assay; assay type: functional
Escherichia coli = experiment: Antibacterial activity against Escherichia coli ATCC 25922 assessed as bacterial growth inhibition incubated for 48 hrs by resazurin staining based microplate reader assay; assay type: functional
Saccharomyces cerevisiae = experiment: Antifungal activity against Saccharomyces cerevisiae ATCC 9763 assessed as fungal growth inhibition incubated for 48 hrs by bromocresol green staining based microplate reader assay; assay type: functional
MCF7 = experiment: Cytotoxicity against human MCF7 cells incubated for 72 hrs by resazurin staining based microplate reader assay; assay type: functional
Aspergillus nomiae [4] = experiment: Antifungal activity against Aspergillus nomius MST-FP2004 assessed as reduction in growth diameter at 20 ug by disc diffusion assay relative to control; assay type: functional; parameters: scale not given: the % may be the effect or the level left; conditions: dose 20 µg
Aspergillus nomiae [5] = experiment: Antifungal activity against Aspergillus nomius MST-FP2004 assessed as change in morphology at 20 ug by disc diffusion assay; assay type: functional, organism-based; conditions: dose 20.0 µg
Aspergillus nomiae [6] = experiment: Antifungal activity against Aspergillus nomius MST-FP2004 assessed as fungal growth rate at 20 ug by disc diffusion assay; assay type: functional, organism-based; conditions: dose 20.0 µg

Row | Compound | Activity (Penicillium brasilianum [1]) | Activity (Penicillium brasilianum [2]) | LD99 [3] [µM] | MIC (Staphylococcus aureus) [µg/mL] | MIC (Bacillus subtilis) [µg/mL] | LD99 (DU-145) [µM] | LD99 (Giardia intestinalis) [µM] | LD99 (Tritrichomonas foetus) [µM] | LD99 (NFF) [µM] | MIC (Candida albicans) [µg/mL] | MIC (Escherichia coli) [µg/mL] | MIC (Saccharomyces cerevisiae) [µg/mL] | LD99 (MCF7) [µM] | Activity (Aspergillus nomiae [4]) [%] | Activity (Aspergillus nomiae [5]) | Activity (Aspergillus nomiae [6])
1 | CCCCCCC/C=C/C1=CC(=O)[C@]2(O1)C(=O)N[C@@](C)(O)[C@H]2O | inactive | inactive | 77 | 50 (≈ 155 µM) | 25 (≈ 77.3 µM) | 39 | 39 | >100 | > 100 | > 100 | > 100 | > 100 | >100 |  |  | 
2 | CN[C@@H]1C[C@H]2O[C@@](C)([C@@H]1OC)n1c3ccccc3c3c4c(c5c6ccccc6n2c5c31)C(=O)NC4 [STAUROSPORINE] |  |  |  |  |  | 3.4 |  | 1.2 | 0.09 |  |  |  | 54 |  |  | 
3 | COC(=O)c1oc(=O)c2c(O)c3c(O)c(C(C)=O)oc3cc2c1O |  |  | 7.8 | > 100 | 42 (≈ 126 µM) | >100 | 37 | 4.8 | > 100 | > 100 | > 100 | > 100 | >100 | ~7 | inactive | inactive
4 | Cc1ncc([N+](=O)[O-])n1CCO [METRONIDAZOLE] |  |  |  |  |  |  | 9.1 |  |  |  |  |  |  |  |  | 
5 | GENTAMICIN |  |  |  | 0.38 | 0.38 |  |  |  |  |  | 0.81 |  |  |  |  | 
6 | COC(=O)c1oc(=O)c2c(O)c(C(=O)O)c(O)cc2c1O |  |  | >100 | > 100 | > 100 | >100 | >100 | >100 | > 100 | > 100 | > 100 | > 100 | >100 |  | inactive | inactive
7 | CO[C@@]12[C@H](COC(N)=O)C3=C(C(=O)C(C)=C(N)C3=O)N1C[C@@H]1N[C@@H]12 [MITOMYCIN] |  |  | 0.93 |  |  |  |  |  |  |  |  |  |  |  |  | 
8 | C[C@@H]1[C@H](O)[C@@H](C)/C=C/C=C/C=C/C=C/C=C/C=C/C=C/[C@H](O[C@@H]2O[C@H](C)[C@@H](O)[C@H](N)[C@@H]2O)C[C@@H]2O[C@](O)(C[C@@H](O)C[C@@H](O)[C@H](O)CC[C@@H](O)C[C@@H](O)CC(=O)O[C@H]1C)C[C@H](O)[C@H]2C(=O)O [AMPHOTERICIN B] |  |  |  |  |  |  |  |  |  | 0.09 (≈ 0.0974 µM) |  | 0.28 (≈ 0.303 µM) |  |  |  | 
